# According to US20130136827A1, “Method and Composition for Increasing The Proportion of Dietary Ingredients That Are Resistant To Degradation by Ruminal Microorganisms” (priority 2011, published 2013):
# Legend:
# [1] = tested on: microorganisms within the rumen ecosystem; settings: Montgomery et al., J Anim Sci. 86(3):640-50; cited from earlier work
# ruminal microbes = experiment: In situ ruminal incubation of samples in Dacron bags for 24 hours
# Text: The in situ procedure utilizes small in situ bags made of a nitrogen-free synthetic polyester fabric (Dacron®; Ankom Technology, Mecedon, N.Y.) that has a 50 μm pore size. The pores are sufficiently small such that when feed materials are placed into the bag the contents are retained. The pore size also is large enough to allow for entry of microorganisms into the bag when placed into the rumen, thus exposing the contents to the degradative actions of ruminal microbes. Disappearance of feed particles from the bag is presumed to be due to microbial fermentative activity whilst the bag and its contents are suspended within the rumen environment. In situ assays provide useful information regarding the susceptibility of feeds to microbial digestion within the rumen.
# The test procedure consisted of adding 12 g of sample (as is) to Dacron bags, which then were heat sealed and subsequently placed into the rumen and allowed to incubate for 24 hours. Bags then were removed from the rumen, dried and weighed to determine disappearance of dry matter. Concentrations of protein, total fatty acids, and fatty acid profile were determined for the residue from each sample. Samples were prepared in duplicate within each animal, along with blank bags for correction, and six animals were used. Three cattle were fed a high-concentrate diet and 3 were fed a high-forage, i.e., low concentrate diet.
# These values were used to calculate the extent of dry matter and nutrient disappearance during the in situ digestion procedure.
Compound,dietary ALA available for absorption in the postruminal digestive tract [1],"ruminally degraded / disappearance of dry matter, over Low and High concentrate groups (ruminal microbes; 24-hour period of ruminal incubation, text summary of Table VII) [%]","In situ dry matter disappearance (%), Mean (ruminal microbes; 24 hours of ruminal incubation, average of Low and High concentrate groups) [%]","In situ dry matter disappearance (%), High Concentrate (ruminal microbes; 24 hours of ruminal incubation, cattle on high-concentrate diet) [%]","In situ dry matter disappearance (%), Low Concentrate (ruminal microbes; 24 hours of ruminal incubation, cattle on high-forage/low concentrate diet) [%]"
"CC/C=C\C/C=C\C/C=C\CCCCCCCC(=O)O [ALA, Alpha-linolenic acid]",less than 5%,–,–,–,–
"Cl.NCCCC[C@H](N)C(=O)O [Lysine, lysine hydrochloride]",–,≥ 99.83,99.86,99.83,99.88
